For data set [1], the system named is Smad signaling. Nature of the data set: Smad signaling in LX2 cells (Western blot). The format is cell-based, human. As to conditions: LX2 cells (FIG. 5C). As to the method:
(§1) Western Blotting: Total protein lysates were prepared from livers and cells in lysis buffer containing 50 mM Tris, pH 8.0, 1% Nonidet™ P-40, 150 mM NaCl, 0.5% sodium deoxycholate, 0.1% SDS with protease inhibitors (Thermo Fisher Scientific) and subjected to immunoblotting. Nuclear and cytoplasmic subcellular fractions were prepared using NE-PER nuclear and cytoplasmic extraction reagents (Pierce) according to the manufacturer's instructions. The blot was incubated with a primary antibody, followed by a secondary antibody conjugated to horseradish peroxidase. ECL kit (Pierce) was used to detect the reactivity. The following antibodies were obtained from Cell Signaling Technology: HMGB2, HMGB1, AKT, p-AKT, mTOR, p-mTOR, ERK1/2, pERK1/2, Raptor, Rictor, p53, p21, p-Bad, Smad4, p-Smad2/3, Lamin A/C, a-SMA, MMP2, MMP9, TIMP1, RhoA, Rho-GTP, Cdc42, Rac1/2/3. Anti-HA antibody and anti-beta actin antibody were purchased from Sigma and Santa Cruz Biotechnology, respectively.
Cell Lines The LX-2 human stellate cell line was maintained in Dulbecco's Modified Eagle's Medium (DMEM) supplemented with 2% fetal bovine serum (FBS), 100 IU/ml penicillin, and 100 μg/ml streptomycin. Human hepatocellular carcinoma (HCC) MHCC97H cells were maintained in DMEM supplemented with 10% FBS, 100 IU/ml penicillin, and 100 μg/ml streptomycin, 1 mM HEPES, 1 mM sodium pyruvate, 2 mM L-glutamine. […]

Data set [2] concerns the target T1, HMGB2 (Homo sapiens, UniProt P26583).
T1 sequence (P26583 1-209): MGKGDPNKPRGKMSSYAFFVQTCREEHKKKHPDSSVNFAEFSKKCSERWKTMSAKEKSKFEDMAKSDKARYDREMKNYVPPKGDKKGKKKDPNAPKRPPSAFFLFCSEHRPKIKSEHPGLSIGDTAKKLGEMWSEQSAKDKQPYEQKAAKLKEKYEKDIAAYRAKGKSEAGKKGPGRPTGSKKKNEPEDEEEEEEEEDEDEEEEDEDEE
In words: Western blot of HMGB2 protein in LX-2 and Huh7 cells treated with ICM. Format: cell-based. Conditions: for HMGB2 protein: fresh media every day for 3 days (FIG. 18 left). More on the design: endogenous in cells; host or cells: LX-2, Huh7. The protocol:
as §1
Cell Lines The LX-2 human stellate cell line was maintained in Dulbecco's Modified Eagle's Medium (DMEM) supplemented with 2% fetal bovine serum (FBS), 100 IU/ml penicillin, and 100 μg/ml streptomycin. Human hepatocellular carcinoma (HCC) MHCC97H cells were maintained in DMEM supplemented with 10% FBS, 100 IU/ml penicillin, and 100 μg/ml streptomycin, 1 mM HEPES, 1 mM sodium pyruvate, 2 mM L-glutamine. Tumor-initiating (TIC) cells were obtained from Dr. Hidekazu Tsukamoto at University of Southern California and were maintained in 1:1 DMEM:F12 supplement with 100 U/ml penicillin and 100 μg/ml streptomycin, 2 mM glutamine, 20 ng/ml mouse EGF, 10 nM dexamethasone, 1× embryomax nucleotides. All the cells were maintained at 37° C. humidified atmosphere with 5% CO2. TIC cells were infected with Hmgb2 shRNA lentivirus for 48 hr, and treated with 500 ng/ml puromycin for 2 weeks. The stable cells were used for migration and invasion assay, as well as western blot.

Data set [3] has as its target T2, HMGB2 protein (Mus musculus, UniProt P30681).
T2 construct: Total protein lysates were prepared from livers and cells in lysis buffer; from tissue; host or cells: mouse liver (C57BL/6J, CCl4 with or without ICM)
T2 sequence (P30681 1-210): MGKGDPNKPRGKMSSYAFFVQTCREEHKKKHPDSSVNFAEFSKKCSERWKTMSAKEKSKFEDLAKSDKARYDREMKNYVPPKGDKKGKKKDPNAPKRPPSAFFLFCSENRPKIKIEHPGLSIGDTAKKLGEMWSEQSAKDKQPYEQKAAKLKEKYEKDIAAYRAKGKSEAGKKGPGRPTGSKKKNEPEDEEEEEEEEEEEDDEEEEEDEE
Nature of the data set: Western blot of HMGB2 protein in liver of CCl4-treated mice. Format: in vivo. The protocol:
Animal Care: All animal care and experimental procedures were approved by the Institutional Animal Care and Use Committee at the University of Connecticut. Shp^−/− mice were described previously. Hmgb2^−/− mice were obtained from Dr. Stella Tsirka at Stony Brook University. C57BL/6J mice were purchased from Jackson Laboratory. All mice were maintained on a 12-h light/dark cycle with free access to food and water unless otherwise indicated. For CCl4 treatment, CCl4 (Sigma) was dissolved in corn oil and administered to mice at a dose of 850 μl/kg BW by intraperitoneal injection (IP) twice a week for 6 or 10 weeks with or without ICM. Age-matched control mice were treated with a corn oil vehicle. For CCl4+ICM treatment, mice were treated with CCl4 for 2 weeks and then ICM (Department of Pharmaceutical Sciences at UConn) was dissolved in PEG (Sigma) and treated with mice (10 mg/kg) every day for 4 or 8 weeks in combination with CCl4. To induce overexpression of HMGB2 in liver, AAV8-Hmgb2 or a control AAV8-GFP was given to mice by tail vein injection at a dose of 5×10^10 GC. To knockdown HMGB2 in mouse livers, AAV-shHmgb2 or a control AAV-shGFP was delivered to mice at a dose of 2×10^10 GC by tail vein injection. One week later, mice injected with AAVs were treated with CCl4 or CCl4 +ICM as described above and sacrificed. […]

Data set [4] relates to TIC cells. Nature of the data set: TIC cell spheroid assay. Format: cell-based. As to conditions: TIC cells with stable HMGB2 knockdown (FIG. 7F). The protocol:
TIC cells were trypsinized into single cells and 1000 cells were suspended in serum free TIC medium with 1% methylcellulose supplemented with B27, 20 ng/ml EGF and 20 ng/ml FGF in each well of 96-well ultralow attachment plate.

“Also recorded” adds a separate entry of the source.

As for `CC1(C)Oc2cc(O)ccc2C2C1=CCn1c(=O)n(-c3ccccc3)c(=O)n12` (stereo not shown) [ICM, inflachromene], the Smad signaling entry in data set [1] is listed as “decreases Smad signaling”. Moreover, the HMGB2 protein entry in data set [2] (Huh7 cells) and in data set [2] (LX-2 cells) was “dose-dependently decreased” throughout. Further, the “cytoplasm HMGB2 protein” value in data set [2] (LX2 cells (FIG. 5C)) is listed as “reduces cytoplasm HMGB2 protein”. For the same molecule, the “liver HMGB2 protein induced by CCl4” value in data set [3] (CCl4 mice treated with ICM, Western blot) is on record as “decreases; also recorded: blocked by ICM; also recorded: reduction in liver HMGB2 protein”. Besides, in data set [3] (mouse liver, CCl4+ICM (FIG. 16)), the “selectivity HMGB2 protein versus HMGB1 protein” value is “more selective to downregulate HMGB2 protein”.

Regarding “shHMGB2: small hairpin RNA against HMGB2 (SEQ ID NO: 8), delivered by AAV or lentivirus (CCGGGCTCAACATTAGCTTCAGTATCTCGAGATACTGAAGCTAATGTTGAGCTTTTTG)”, in data set [4], the spheroid size result is listed as “decreased spheroid size”.

Source of the values: patent US20180320177A1, “COMPOSITIONS AND METHODS FOR THE TREATMENT OF LIVER FIBROSIS” (UNIVERSITY OF CONNECTICUT, priority 2015, published 2018).
